From publication PMC3854609, “Biosynthesis of Sandalwood Oil: Santalum album CYP76F Cytochromes P450 Produce Santalols and Bergamotol” (PLoS ONE, 2013)
Where a chain is given by its changes, count along the chain named.

How the values were obtained:
Experiment in all cases: GCMS product formation, yeast microsomes
Assay type in all cases: biochemical
SaCYP76F41 = molecular target: T1, SaCYP76F41 (Santalum album, UniProt V5RFE4); conditions: substrate in mixture of santalenes and α-exo-bergamotene, 40 µM, NADPH 0.8 mM, pH 7.5, 30°C, 2 h, with SaCPR
T1 construct: gene CYP76F41; full-length cDNA in pYEDP60, yeast BY4741 microsomes, co-expressed with S. album CPR2 (KC842188)
T1 sequence (V5RFE4 1-509): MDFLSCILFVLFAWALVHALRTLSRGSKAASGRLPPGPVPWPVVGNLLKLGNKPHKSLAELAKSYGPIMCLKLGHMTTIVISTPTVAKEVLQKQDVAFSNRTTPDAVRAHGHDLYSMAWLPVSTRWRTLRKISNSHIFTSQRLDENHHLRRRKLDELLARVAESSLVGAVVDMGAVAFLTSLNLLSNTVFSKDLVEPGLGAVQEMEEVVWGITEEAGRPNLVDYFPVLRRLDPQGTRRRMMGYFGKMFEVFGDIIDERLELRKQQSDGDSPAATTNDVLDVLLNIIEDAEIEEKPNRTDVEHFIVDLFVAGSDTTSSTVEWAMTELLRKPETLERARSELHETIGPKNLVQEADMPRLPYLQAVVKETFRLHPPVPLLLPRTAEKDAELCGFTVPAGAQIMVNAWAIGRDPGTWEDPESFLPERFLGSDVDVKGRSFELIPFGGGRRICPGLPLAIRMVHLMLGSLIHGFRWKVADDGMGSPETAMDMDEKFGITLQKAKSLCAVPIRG

SaCYP76F39v2 = molecular target: T2, SaCYP76F39v2 (Santalum album, UniProt V5RGD0); conditions: substrate in mixture of santalenes and α-exo-bergamotene, 40 µM, NADPH 0.8 mM, pH 7.5, 30°C, 2 h, with SaCPR
T2 construct: gene CYP76F39v2; full-length cDNA in pYEDP60, yeast BY4741 microsomes, co-expressed with S. album CPR2 (KC842188)
T2 sequence (V5RGD0 1-509): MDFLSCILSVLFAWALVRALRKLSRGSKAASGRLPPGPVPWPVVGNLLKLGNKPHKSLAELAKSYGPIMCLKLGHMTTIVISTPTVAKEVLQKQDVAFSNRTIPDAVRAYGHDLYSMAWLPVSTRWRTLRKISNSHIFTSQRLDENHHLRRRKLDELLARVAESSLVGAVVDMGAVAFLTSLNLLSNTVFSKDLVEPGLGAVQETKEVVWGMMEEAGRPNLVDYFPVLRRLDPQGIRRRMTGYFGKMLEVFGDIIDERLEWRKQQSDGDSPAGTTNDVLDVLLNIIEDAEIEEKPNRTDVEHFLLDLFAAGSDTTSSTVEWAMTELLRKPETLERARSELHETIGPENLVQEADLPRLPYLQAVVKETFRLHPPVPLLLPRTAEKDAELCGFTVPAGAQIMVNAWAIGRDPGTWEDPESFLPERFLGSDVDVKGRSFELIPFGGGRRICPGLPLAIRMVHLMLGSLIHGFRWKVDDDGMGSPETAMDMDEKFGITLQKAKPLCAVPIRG

SaCYP76F37v1 = molecular target: T3, SaCYP76F37v1 (Santalum album, UniProt V5RGC8); conditions: NADPH 0.8 mM; potassium phosphate pH 7.5; 30°C; 20 min; with SaCPR; TLC-enriched substrate; read-out: apparent Km
T3 construct: gene CYP76F37v1; full-length cDNA in pYEDP60, yeast BY4741 microsomes, co-expressed with S. album CPR2 (KC842188)

SaCYP76F39v1 = molecular target: T4, SaCYP76F39v1 (Santalum album, UniProt V5RH69); conditions: NADPH 0.8 mM; potassium phosphate pH 7.5; 30°C; 20 min; with SaCPR; TLC-enriched substrate; read-out: apparent Km
T4 construct: gene CYP76F39v1; full-length cDNA in pYEDP60, yeast BY4741 microsomes, co-expressed with S. album CPR2 (KC842188)
T4 sequence (V5RH69 1-509): T2 sequence (V5RGD0 1-509) with S9F, R21P, K22T, I103T, Y110H

[1] = products (Z)- and (E)-α-santalol
[2] = products (Z)- and (E)-β-santalol

T3 sequence (V5RGC8 1-509): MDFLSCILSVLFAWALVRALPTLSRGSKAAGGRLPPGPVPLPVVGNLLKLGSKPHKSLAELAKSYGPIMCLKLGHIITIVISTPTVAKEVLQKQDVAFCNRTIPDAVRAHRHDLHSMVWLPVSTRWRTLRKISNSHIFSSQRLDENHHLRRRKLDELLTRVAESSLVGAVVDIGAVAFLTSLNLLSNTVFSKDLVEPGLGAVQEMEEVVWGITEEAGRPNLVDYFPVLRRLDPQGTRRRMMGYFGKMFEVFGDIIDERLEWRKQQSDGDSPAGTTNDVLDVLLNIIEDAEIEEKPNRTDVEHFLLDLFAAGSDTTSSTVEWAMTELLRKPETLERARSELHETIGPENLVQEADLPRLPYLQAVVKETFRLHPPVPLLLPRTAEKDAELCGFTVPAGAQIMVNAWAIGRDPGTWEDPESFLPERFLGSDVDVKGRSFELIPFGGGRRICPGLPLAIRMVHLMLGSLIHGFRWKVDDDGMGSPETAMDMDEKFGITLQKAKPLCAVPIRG

Structure (SMILES) | GCMS product formation, yeast microsomes (SaCYP76F41; [1]) | GCMS product formation, yeast microsomes (SaCYP76F39v2; [1]) | GCMS product formation, yeast microsomes (SaCYP76F41; [2]) | Km (SaCYP76F37v1) [µM] | GCMS product formation, yeast microsomes (SaCYP76F39v2; [2]) | Km (SaCYP76F39v1) [µM]
CC(C)=CCCC1(C)C2CC3C(C2)C31C (stereo not drawn) [compound 1, α-santalene] | gave product profiles similar to that observed with CYP76F39v1 | gave product profiles similar to that observed with CYP76F39v1 | – | – | – | –
C=C1[C@@H]2CC[C@@H](C2)[C@@]1(C)CCC=C(C)C [compound 4, β-santalene] | – | – | gave product profiles similar to that observed with CYP76F39v1 | 157 | gave product profiles similar to that observed with CYP76F39v1 | 34.8
